Reference: publication PMC11984586, “A novel spider toxin as a selective antagonist of the Kv1 subfamily of voltage-gated potassium channels through gating modulation” (The Journal of Biological Chemistry, 2025)
Bridge positions count the residues as written; N and C are the ends. Peptide text beside a SMILES is read from it.

Key:
Assay in all cases: Whole-cell patch clamp, chimeric channel
[1] = system: Kv1.3/Kv1.4 S3-S4 chimeric channel; type: cell-based, human/rat; settings: +30 mV, mean ± SD, n = 5-6
Excerpt: To investigate the structural determinants underlying the differential regulatory effects of MrVIII on Kv1 channels, we employed a chimeric channel strategy. Using Kv1.3 as the template, the S1-S2, S3-S4, and S5-S6 transmembrane helices and their respective linkers from Kv1.1 were inserted to generate chimeras, generating the Kv1.3/1.1 S1-S2, Kv1.3/1.1 S3-S4, and Kv1.3/1.1 S5-S6 chimeric channels. […] These findings indicate that the S3-S4 is the key determinant for the differential inhibition of Kv1.1 and Kv1.3 by MrVIII. To further validate this conclusion, we constructed a reverse chimeric channel using Kv1.1 as the template, inserting the corresponding regions from Kv1.3 into Kv1.1. […] This finding more directly illustrates the exchange of the channel's voltage-dependence phenotype in toxin inhibition by swapping this S3-S4 between Kv1.1 and Kv1.3. […] In addition to confirming the differential role of S3-S4 between Kv1.1 and Kv1.3, we also substituted the S3-S4 of Kv1.4 and Kv1.7 into Kv1.3 to analyze MrVIII's inhibition profile. […]
CHO-K1 cells were selected for expressing Kv channels due to their lack of endogenous Kv channels, while HEK293 or ND7/23 cells were used for Nav and Cav channel expression. […] After 4 to 6 h transfection, cells were seeded onto poly-lysine–coated coverslips, and 24 to 36 h later, transfected cells were ready for patch-clamp analysis. […]

[2] = system: Kv1.1/1.3 S3-S4 chimeric channel; type: cell-based, human; settings: +30 mV, 500 ms, mean ± SD, n = 4-5, read-out: IC50, Kv1.1/1.3 S3-S4 current (complete inhibition)
Excerpt: (§1) To investigate the structural determinants underlying the differential regulatory effects of MrVIII on Kv1 channels, we employed a chimeric channel strategy. Using Kv1.3 as the template, the S1-S2, S3-S4, and S5-S6 transmembrane helices and their respective linkers from Kv1.1 were inserted to generate chimeras, generating the Kv1.3/1.1 S1-S2, Kv1.3/1.1 S3-S4, and Kv1.3/1.1 S5-S6 chimeric channels. […] These findings indicate that the S3-S4 is the key determinant for the differential inhibition of Kv1.1 and Kv1.3 by MrVIII. To further validate this conclusion, we constructed a reverse chimeric channel using Kv1.1 as the template, inserting the corresponding regions from Kv1.3 into Kv1.1. […] This finding more directly illustrates the exchange of the channel's voltage-dependence phenotype in toxin inhibition by swapping this S3-S4 between Kv1.1 and Kv1.3. […] In addition to confirming the differential role of S3-S4 between Kv1.1 and Kv1.3, we also substituted the S3-S4 of Kv1.4 and Kv1.7 into Kv1.3 to analyze MrVIII's inhibition profile. […] The IC50 for Kv1.3/1.7 S3-S4 could not be fitted, and inhi%(495 ms) was only 23.1 ± 10.0% (Fig. S2, E and F).
(§2) The cDNA of hKv1.1, hKv1.2, hKv1.3, rKv1.4, hKv1.5, mKv1.6, and hKv1.7 were subcloned into mammalian expression vectors pcDNA3.1 or pCMV-blank vectors, as well as other plasmids described previously ([35]). Channel mutants were generated by site-directed mutations. Briefly, the parental channel plasmid was amplified using a pair of oppositely directed primers harboring the designed mutation site, with KOD Fx (TOYOBO Co, Ltd). The resulting PCR mix was treated with FastDigest DpnI (Thermo Fisher Scientific) to remove the methylated template. Ten microliters of the digested product was then used to transform 100 μl E. coli DH5α competent cells. Transformants were randomly picked and sequenced to confirm the presence of the intended mutation.
(§3) CHO-K1 cells were selected for expressing Kv channels due to their lack of endogenous Kv channels, while HEK293 or ND7/23 cells were used for Nav and Cav channel expression. CHO-K1 cells were cultured in a Dulbecco's modified Eagle's medium/Ham's F-12 nutrient mixture (DMEM-F12) medium, and HEK293T and ND7/23 cells in DMEM medium, all supplemented with 10% fetal bovine serum and 1% penicillin-streptomycin (all from Gibco, Thermo Fisher Scientific, Inc) under standard conditions (37 °C, 5% CO2, and saturated humidity). These cell lines were purchased from Stem Cell Bank, Chinese Academy of Sciences. Channel plasmids were cotransfected with pEGFP-N1 (encoding GFP) into the respective cells using lipofectamine 2000, following the manufacturer's instructions (Invitrogen, Thermo Fisher Scientific, Inc.). Nav1.9-GFP plasmid was transfected into ND7/23 using the X-tremeGENE HP DNA Transfection Reagent (Roche). After 4 to 6 h transfection, cells were seeded onto poly-lysine–coated coverslips, and 24 to 36 h later, transfected cells were ready for patch-clamp analysis.
(§4) Patch clamp experiments were conducted using an electrophysiology platform comprising a MultiClamp 700B amplifier and an Axon Digidata 1550 AD/DA convertor (Axon Instruments). Data acquisition was performed with pClamp 10.5 software (Axon Instruments). All experiments were performed at room temperature.
(§5) For Kv current recordings, the bath solution contained (in mM) the following: 140 NaCl, 5 KCl, 1 MgCl2, 2 CaCl2, 10 glucose, and 10 Hepes (pH 7.3, adjusted with NaOH), and the pipette solution contained (in mM) the following: 140 KCl, 2.5 MgCl2, 11 EGTA, and 10 Hepes (pH 7.3, adjusted with KOH). Series resistance was maintained below 10 MΩ and compensated to 80%. Concentration–response curves were fitted by the Hill equation to determine the toxin's potency. Whole cell conductance (G) at each depolarizing voltage (V) was determined using the equation: G = I/(V−Vrev), where I is the current amplitude, and Vrev is the reversal potential. […]

[3] = system: Kv1.3/1.1 S3-S4 chimeric channel; type: cell-based, human; settings: +30 mV, mean ± SD
Excerpt: as §1, §2, §3, §4, §5

[4] = system: Kv1.3/1.7 S3-S4 chimeric channel; type: cell-based, human; settings: current at 495 ms, +30 mV, IC50 could not be fitted, mean ± SD, n = 5-6
Excerpt: as §1, §2, §3, §4, §5

[5] = system: Kv1.3/1.1 S1-S2 chimeric channel; type: cell-based, human; settings: +30 mV, 500 ms, holding −80 mV, mean ± SD, n = 4-5, read-out: IC50, Kv1.3/1.1 S1-S2 current
Excerpt: as §1, §2, §3, §4, §5

[6] = system: Kv1.1/1.3 S1-S2 chimeric channel; type: cell-based, human; settings: +30 mV, mean ± SD
Excerpt: as §1, §2, §3, §4, §5

For `CC[C@H](C)[C@@H]1NC(=O)[C@H](Cc2ccc(O)cc2)NC(=O)[C@H](CCC(N)=O)NC(=O)[C@@H]2CCCN2C(=O)[C@@H]2CSSC[C@H](NC(=O)[C@H](C)NC(=O)[C@H](CO)NC(=O)[C@H](CCC(=O)O)NC(=O)[C@H](CCC(=O)O)NC(=O)[C@@H](N)[C@@H](C)O)C(=O)NCC(=O)NCC(=O)N[C@@H](Cc3ccccc3)C(=O)N[C@@H](CC(N)=O)C(=O)N[C@@H](C)C(=O)N[C@@H](CCCNC(=N)N)C(=O)N[C@H]3CSSC[C@H](NC1=O)C(=O)N[C@@H](CCCCN)C(=O)NCC(=O)N[C@@H](Cc1c[nH]c4ccccc14)C(=O)N[C@@H](CCCNC(=N)N)C(=O)N[C@@H]([C@@H](C)O)C(=O)N[C@@H](CCCCN)C(=O)N[C@@H](CCCNC(=N)N)C(=O)N[C@H](C(=O)N[C@@H](CC(C)C)C(=O)N[C@@H](CC(N)=O)C(=O)N1CCC[C@H]1C(=O)O)CSSC[C@H](NC(=O)[C@H](CCCCN)NC(=O)[C@H](Cc1c[nH]cn1)NC(=O)[C@H](CC(C)C)NC(=O)[C@@H]1CCCN1C3=O)C(=O)N2` [MrVIII] (H-TEESACGGFNARCPLHKCCPQYICKGWRTKRCLNP-OH; disulfide 6-19, 13-24, 18-32; N-terminus and C-terminus assumed), the IC50 ([1]; current at 50 ms) was 117 ± 48.2 nM, the “inhi%(495 ms), Kv1.3/Kv1.4 S3-S4 current” value ([1]; current at 495 ms) was 37.9 ± 5.4% and the IC50 [2] was 1.7 ± 0.6 nM. For the same compound, the IC50 ([3]; current at 50 ms, n = 4-5) was 230 ± 123 nM, the “inhi%(495 ms), Kv1.3/1.1 S3-S4 current” value ([3]; current at 495 ms, negative = current enhanced) was −10.0 ± 13.9% and the “inhi%(495 ms), Kv1.3/1.7 S3-S4 current” value [4] was 23.1 ± 10.0%. The IC50 [5] was 1.9 ± 1.1 nM, the IC50 ([6]; current at 50 ms, n = 4-5) was 103 ± 59.1 nM and the “inhi%(495 ms), Kv1.1/1.3 S1-S2 current” value ([6]; current at 495 ms) was 60.5 ± 18.5%.
